Here are results for 2 compounds from patent US7851599B2 (Philogen S.p.A., priority 2006, dated 2010).

For experiment [1], the target named is ED-B domain of fibronectin (Homo sapiens, UniProt P02751). The following applies: cited from earlier work.
In experiment [2] the test system is human pancreatic cancer cell line DanG. Put plainly: Orthotopic DanG pancreatic cancer xenograft, tumor volume. The format is in vivo, nude mice.

ED-B domain of fibronectin, sequence (P02751 1271-1359 limits assumed): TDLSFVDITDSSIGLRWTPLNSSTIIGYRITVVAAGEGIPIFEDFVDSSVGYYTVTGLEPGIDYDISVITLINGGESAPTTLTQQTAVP

Turning to “scFv L19: human homodimeric single chain Fv antibody fragment L19 specific for the ED-B domain of fibronectin”, the “binding affinity for ED-B” value in experiment [1] was “picomolar”.

As for `Nc1ccn([C@@H]2O[C@H](CO)[C@@H](O)C2(F)F)c(=O)n1` [gemcitabine, 2′-deoxy-2′,2′-difluorocytidine], the “mice with complete remission” value in experiment [2] (gemcitabine 250 mg/kg BW days 7, 14, L19IL2 4.29 MIU/kg BW days 8-12, 15-19, or both) is “no complete remission”. In experiment [2] (gemcitabine i.p. 250 mg/kg BW once weekly (day 7 and 14), day 21), the “pancreatic tumor volume, % compared to control mice” value worked out at 28%.
